From patent publication EP0385445A2, “Method of forming a suspension and composition formed by said method” (Horikoshi, Isamu, priority 1989, dated 1990)
Where a SMILES comes first, the peptide text is derived from it. Bridges are numbered along the chain shown (N, C = ends).

Assays:
[1] = Concentration of eel calcitonin in blood after injection into the duodenum (Example 11); type: in vivo, Wistar male rats; conditions: male, Wistar, rat, 50 ug per rat, 100 µg/ml, 0.5 ml into the duodenum
Procedure: Wistar male rats each weighing ca. 200 g were cannulated at the duodenum and tail vein under anesthetization with either and restrained in Bollman cages. […] A control group was injected with 0.5 ml of PBS(-), and a calcitonin control group was injected with 0.5 ml of a solution of calcitonin in phosphate buffer saline (100 µg/ml). Blood samples were taken from these control-groups according to the same schedule as in the case of the emulsion treated group. Thirty minutes before the administration of calciton, calcium chloride in physiological saline was administered intraperitoneally in an amount of 60 mg/kg in order to stimulate the secretion of endogenous calcitonin. Each rat group consisted of 6 animals.

[2] = Oral absorption of lipid-soluble drugs reduced to microspheres with MFGM; conditions: drug reduced to microspheres with MFGM
[3] = Measurement of emulsion activity (light transmittance); type: physicochemical; conditions: emulsion containing the labelled fat or oil; Fig. 6
Procedure: After heating at 40 - 45°C for 5 minutes, the mixture was stirred with a Polytron homogenizer at a maximum speed for 1 minute to obtain an emulsion (which contained 5 wt% of the oil).
Each of the emulsions was put into a test tube, which was readjusted to a vertical position and left to stand at room temperature. At given time intervals, 0.2-ml portions of each emulsion were collected from the bottom of the test tube and mixed with 3.8 ml of an aqueous solution of 0.1% sodium dodecylsulfate. The light transmittance of each sample was measured under various conditions and the results of measurements are shown in Figs. 3 - 6.

[4] = Absorption of vitamin A through lymphatic vessels after injection of emulsions into the loop of small intestines; type: in vivo, Wistar male rats
Procedure: Wistar male rats each weighing about 400 g were starved for 24 hours. The starved rats were anesthetized by intraperitoneal administration of pentobarbital. Thereafter, the rats were incised in the belly and silicon cannulas were inserted into the area between the pylorus of the stomach and the duodenum and into the ileocecal area. Through the upper cannula, liquid drugs (5 ml) composed of the emulsions prepared in Example 1 were injected into the loop of small intestines (duodenum, jejunum and ileum) and the cannula was closed with a clamp.
Blood and lymph fluid were collected from the hip artery and the lymph in the thoracic duct at given time intervals and the concentrations of vitamin A in the two fluids were measured. A similar experiment was conducted on biliary fistula rats from which bile was excreted through a cannula inserted into the bile duct, and comparison was made with intact rats which had not received such a treatment.
[…] After extraction with cyclohexane, the concentration of vitamin A in each sample was measured by fluorometry at 480 nm with fluorescence excited at 340 nm. After being absorbed by the small intestines, vitamin A forms chylomicron, the greater part of which is known to be transferred into the lymph system, not the blood system.

[5] = rat, in vivo
Procedure: Wistar male rats each weighing ca. 300 g were starved overnight. Thereafter, their skin above the right common carotid artery was incised and a cannula was inserted into the artery. […] The so prepared emulsion was administered orally to the rats. […] The dose of hydrocortisone was 1.5 mg/kg. After hydrocortisone administration, blood samples were taken at regular time intervals. Feces and urine were collected and the rats were killed 49 hours after the administration. The digestive tracts, their contents and various organs were separated and the content of hydrocortisone in each site was determined by radioactivity measurement.

Molecule `CC(C)C[C@H](NC(=O)[C@H](CCCCN)NC(=O)CNC(=O)[C@H](CC(C)C)NC(=O)[C@@H](NC(=O)[C@@H]1CSSC[C@H](N)C(=O)N[C@@H](CO)C(=O)N[C@@H](CC(N)=O)C(=O)N[C@@H](CC(C)C)C(=O)N[C@@H](CO)C(=O)N[C@@H]([C@@H](C)O)C(=O)N1)C(C)C)C(=O)N[C@@H](CO)C(=O)N[C@@H](CCC(N)=O)C(=O)N[C@@H](CCC(=O)O)C(=O)N[C@@H](CC(C)C)C(=O)N[C@@H](Cc1c[nH]cn1)C(=O)N[C@@H](CCCCN)C(=O)N[C@@H](CC(C)C)C(=O)N[C@@H](CCC(N)=O)C(=O)N[C@H](C(=O)N[C@@H](Cc1ccc(O)cc1)C(=O)N1CCC[C@H]1C(=O)N[C@@H](CCCNC(=N)N)C(=O)N[C@H](C(=O)N[C@@H](CC(=O)O)C(=O)N[C@H](C(=O)NCC(=O)N[C@@H](C)C(=O)NCC(=O)N[C@H](C(=O)N1CCC[C@H]1C(N)=O)[C@@H](C)O)C(C)C)[C@@H](C)O)[C@@H](C)O` [Calcitonin treated] (H-CSNLSTCVLGKLSQELHKLQTYPRTDVGAGTP-NH2; disulfide 1-7 (inferred); N-terminus and C-terminus assumed) has a level at 0 h [1]; 0 of 0.1 ± 0.08 ng/mL, a level at 0.5 h ([1]; 30 min.) of 0.7 ± 0.09 ng/mL and a level at 1 h ([1]; 60 min.) of 0.7 ± 0.22 ng/mL. For the same molecule, the level at […] ([1]; 90 min.) was 0.8 ± 0.31 ng/mL and the level at 2 h ([1]; 120 min.) was 0.6 ± 0.4 ng/mL.

With `COC1=C(OC)C(=O)C(CCCCCCCCCCO)=C(C)C1=O` [avan] the “ability of MFGM to promote the absorption” value [2] was “also observed”.

With `CCCCCCCC/C=C\CCCCCCCC(=O)OCC(O)CO` (stereo not drawn) [monoolein] the “increase in emulsion activity” value [3] was “least increase”.

In the case of `CCCCCCCC/C=C\CCCCCCCC(=O)O` [oleic acid], the “increase in emulsion activity” value [3] is reported as “highest increase” and the “concentration of vitamin A in lymph (ranking)” value ([4]; intact rats, emulsion in labelled fat or oil, content 5%, vitamin A 2.5 mg per rat, Fig. 9) is reported as “lowest level”.

For Tween 80, the “residual in the body” value [5] was 12.41 % of dose.

For vitamin A, the “concentration of vitamin A in lymph” value ([4]; rat, in vivo) was “dropped to very low levels” and the “vitamin A in the blood” value ([4]; rat, in vivo) was “hardly detectable”.
